From ChEMBL document CHEMBL4190163 (2016)
Calls of active or inactive are those of the source. The rule behind the calls is not given here.

Key:
MDA-MB-231 [1] = assay: Cytotoxicity against human MDA-MB-231 cells after 48 hrs by MTS assay; assay type: functional; settings: MDA-MB-231, 48 h
DU-145 [2] = assay: Cytotoxicity against human DU145 cells after 48 hrs by MTS assay; assay type: functional; settings: DU-145, 48 h
JIMT-1 = assay: Cytotoxicity against human JIMT1 cells after 48 hrs by MTS assay; assay type: functional; settings: JIMT-1, 48 h
MIA PaCa-2 [3] = assay: Cytotoxicity against human MIAPaCa2 cells after 48 hrs by MTS assay; assay type: functional; settings: MIA PaCa-2, 48 h
PC-3 = assay: Cytotoxicity against human PC3 cells after 48 hrs by MTS assay; assay type: functional; settings: PC-3, 48 h
BT-474 [4] = assay: Cytotoxicity against human BT474 cells after 48 hrs by MTS assay; assay type: functional; settings: BT-474, 48 h
BT-474 [5] = assay: Disruption of preformed spheroids in human BT474 cancer stem cells at 5 to 10 uM after 4 days by microscopic analysis; assay type: functional
DU-145 [6] = assay: Disruption of preformed spheroids in human DU145 cancer stem cells at 5 to 10 uM after 4 days by microscopic analysis; assay type: functional
BT-474 [7] = assay: Cytotoxicity against human BT474 cancer stem cell spheroids assessed as reduction in cell viability at 5 to 10 uM after 5 to 6 days by MTS assay; assay type: functional
DU-145 [8] = assay: Cytotoxicity against human DU145 cancer stem cell spheroids assessed as reduction in cell viability at 5 to 10 uM after 5 to 6 days by MTS assay; assay type: functional
BT-474 [9] = assay: Cytotoxicity against human BT474 cancer stem cell spheroids assessed as reduction in cell viability at 5 uM after 5 to 6 days by MTS assay; assay type: functional
DU-145 [10] = assay: Cytotoxicity against human DU145 cancer stem cell spheroids assessed as reduction in cell viability at 5 uM after 5 to 6 days by MTS assay; assay type: functional
BT-474 [11] = assay: Cytotoxicity against human BT474 cancer stem cell spheroids assessed as reduction in cell viability up to 20 uM after 3 to 5 days by MTS assay; assay type: functional, cell-based
DU-145 [12] = assay: Cytotoxicity against human DU145 cancer stem cell spheroids assessed as reduction in cell viability up to 20 uM after 3 to 5 days by MTS assay; assay type: functional, cell-based
BT-474 [13] = assay: Disruption of preformed spheroids in human BT474 cancer stem cells at 20 uM after 3 days by microscopic analysis; assay type: functional, cell-based
DU-145 [14] = assay: Disruption of preformed spheroids in human DU145 cancer stem cells at 20 uM after 3 days by microscopic analysis; assay type: functional, cell-based
MDA-MB-231 [15] = assay: Potency index, ratio of salinomycin CC50 to test compound CC50 for human MDA-MB-231 cells; assay type: functional
DU-145 [16] = assay: Potency index, ratio of salinomycin CC50 to test compound CC50 for human DU145 cells; assay type: functional
MIA PaCa-2 [17] = assay: Potency index, ratio of salinomycin CC50 to test compound CC50 for human MIAPaCa2 cells; assay type: functional
BT-474 [18] = assay: Potency index, ratio of salinomycin CC50 to test compound CC50 for human BT474 cells; assay type: functional
BT-474 [19] = assay: Disruption of preformed spheroids in human BT474 cancer stem cells at 7.5 uM after 3 days by microscopic analysis; assay type: functional, cell-based
DU-145 [20] = assay: Disruption of preformed spheroids in human DU145 cancer stem cells at 7.5 uM after 3 days by microscopic analysis; assay type: functional, cell-based

SMILES | CC50 (MDA-MB-231 [1]) [µM] | CC90 (MDA-MB-231 [1]) [µM] | CC50 (DU-145 [2]) [µM] | CC90 (DU-145 [2]) [µM] | CC50 (JIMT-1) [µM] | CC90 (JIMT-1) [µM] | CC50 (MIA PaCa-2 [3]) [µM] | CC90 (MIA PaCa-2 [3]) [µM] | CC50 (PC-3) [µM] | CC90 (PC-3) [µM] | CC50 (BT-474 [4]) [µM] | CC90 (BT-474 [4]) [µM] | also measured
CCCCCCCCCCCCCCCCOCCCO[C@@H]1O[C@H](CN)[C@@H](O)[C@H](O)[C@H]1N | 4.5 | 7 | 6 | 8.5 | 4 | 6 | 6.5 | 13 | 8 | 14 | 8.5 | 17.5 | Activity (BT-474 [5]): 100%; Activity (DU-145 [6]): 100%; Activity (BT-474 [7]): 100%; Activity (DU-145 [8]): 100%; Activity (BT-474 [9]): >95%; Activity (DU-145 [10]): >95%
CCCCCCCCCCCCCCCCOC[C@H](CO[C@@H]1O[C@H](CO)[C@@H](O)[C@H](O)[C@H]1N)NC(=O)CCCCCCCCCCCCCCC | > 30 | – | – | – | – | – | – | – | – | – | – | – | –
CCCCCCCCCCCCCCCCOC[C@H](CN=[N+]=[N-])O[C@@H]1O[C@H](CO)[C@@H](O)[C@H](O)[C@H]1N | 11 | 15 | 12.5 | 18 | 9.5 | 13.5 | 11.5 | 18.5 | 6 | 15 | 22 | 28 | –
CCCCCCCCCCCCCCCCOC[C@H](CN)O[C@@H]1O[C@H](CO)[C@@H](O)[C@H](O)[C@H]1N | 12 | 17.5 | 17.5 | 25 | 14 | 19 | 15 | 28 | 9.5 | 17 | 25 | > 30 | –
CCCCCCCCCCCCCCN | – | – | – | – | – | – | – | – | – | – | – | – | Activity (BT-474 [11]): inactive; Activity (DU-145 [12]): inactive; Activity (BT-474 [13]): inactive; Activity (DU-145 [14]): inactive
O=C(O)CCCc1ccc(N(CCCl)CCCl)cc1 [CHLORAMBUCIL] | > 150 | – | – | – | – | – | – | – | – | – | – | – | –
CCCCCCCCCCCCCCCCOC[C@@H](CO[C@@H]1O[C@H](CN)[C@@H](O)[C@H](O)[C@H]1N1C(=O)c2ccccc2C1=O)OC | 20 | – | > 30 | – | – | – | – | – | 15 | – | – | – | –
CCCCCCCCCCCCCCCCOC[C@H](CO[C@@H]1O[C@H](CO)[C@@H](O)[C@H](O)[C@H]1N)NC(=O)OC | 16 | 19 | 14 | 19 | 12.5 | 15 | 18 | 29 | 20 | 29 | 23 | 29 | –
CCCCCCCCCCCCCCCCOC[C@@H](CO[C@@H]1O[C@H](CN)[C@@H](O)[C@H](O)[C@H]1N)OC | 5.5 | 7 | 6 | 8.5 | 4.2 | 6.5 | 7 | 12 | 11 | 14 | 11.5 | 14 | Activity (BT-474 [5]): 100%; Activity (DU-145 [6]): 100%; Activity (BT-474 [7]): 100%; Activity (DU-145 [8]): 100%
CCCCCCCCCCCCCCCCOC[C@@H](CO[C@@H]1O[C@H](CO)[C@@H](O)[C@H](O)[C@H]1N)OC | – | – | 10 | 15 | 9 | 16 | 9 | 18 | 13.5 | 28 | 8 | 13 | –
CCCCCCCCCCCCCCCCOC[C@@H](CO[C@H]1O[C@H](CN)[C@@H](O)[C@H](O)[C@H]1N)OC | 3 | 4.5 | 5.2 | 7.4 | 3.5 | 4.9 | 3.5 | 6.5 | 3.5 | 6 | 7.5 | 9.5 | Activity (BT-474 [5]): 100%; Activity (DU-145 [6]): 100%; Activity (BT-474 [7]): 100%; Activity (DU-145 [8]): 100%; Ratio (MDA-MB-231 [15]): >6; Ratio (DU-145 [16]): >4; Ratio (MIA PaCa-2 [17]): 2; Ratio (BT-474 [18]): 2; Activity (BT-474 [9]): >95%; Activity (DU-145 [10]): >95%
CCCCCCCCCCCCCCCCOC[C@H](CO[C@@H]1O[C@H](CN)[C@@H](O)[C@H](O)[C@H]1N)O[C@@H]1O[C@H](CN)[C@@H](O)[C@H](O)[C@H]1N | > 30 | – | – | – | – | – | – | – | – | – | – | – | –
CCCCCCCCCCCCCCCCOC[C@@H](N)CO[C@@H]1O[C@H](CO)[C@@H](O)[C@H](O)[C@H]1N | 6 | 9 | 6 | 9 | 5.5 | 7.5 | 8.5 | 14 | 9 | 14 | 15.5 | 28 | Activity (BT-474 [5]): 100%; Activity (DU-145 [6]): 100%; Activity (BT-474 [7]): 100%; Activity (DU-145 [8]): 100%
CC[C@@H](C(=O)[C@@H](C)[C@@H](O)[C@H](C)[C@@H]1O[C@@H]([C@@H](CC)C(=O)O)CC[C@@H]1C)[C@H]1O[C@]2(C=C[C@@H](O)[C@]3(CC[C@@](C)([C@H]4CC[C@](O)(CC)[C@H](C)O4)O3)O2)[C@H](C)C[C@@H]1C [SALINOMYCIN] | > 20 | – | > 20 | – | – | – | 6.5 | – | – | – | 14 | – | Activity (BT-474 [19]): Active; Activity (DU-145 [20]): Active
